{"source": "patent US8236331B2", "about": "“Cosmetic cooling composition” (Coty Deutschland GmbH, priority 2004, dated 2012)", "origin": "cited, not measured here", "details": "WO 03/007909, no period of time specified", "data": [{"smiles": "CCCCCCCCCCCCCCCC(=O)OC", "note": "[methyl palmitate]", "values": [{"measurement": "cooling effect as described", "value": "long-lasting"}]}]}
